Legend:
Type in all cases: biochemical
[1] = test system: ωdN4P and non-extendible AF546 primer:template duplex; assay: Stopped-flow t−1 measurement of Example 7; details: modified versus reference polymerase, ωdN4P 14 μM
Procedure: In this example, the t−1 values of an exemplary modified polymerase comprising the amino acid of SEQ ID NO: 8 and an exemplary reference polymerase comprising the amino acid sequence of SEQ ID NO: 20 were measured and compared. These kinetic parameters were evaluated using an assay system wherein mixtures comprising a test polymerase and a primer:template duplex were mixed in a stopped-flow assay with nucleotides. To measure t−1, the primer used to form the primer:template duplex was a non-extendible primer including a dideoxynucleotide at its 3′ end, and the template was a synthetic DNA template comprising a donor Alexa Fluor 546 moiety at its 5′ end. […] The ternary complex was mixed with unlabeled nucleotides in a stopped-flow experiment, and the resulting fluorescence was monitored as described below. […]
Preincubated mixtures comprising 200 nM of a primer:templex duplex, 660 nM of test polymerase, and 14 μM of ωdN4P were prepared and then mixed with a solution comprising the unlabeled cognate nucleotide (50 μM) in a stopped-flow apparatus. The fluorescence at both 546 nm and 647 nm was monitored following mixing. The averaged stopped-flow fluorescence traces were fitted with a single exponential function having the form of Equation (1) to extrapolate the t−1 value of the test polymerase.

[2] = test system: ωdN4P and extendible AF546 primer:template duplex; assay: Stopped-flow tpol measurement of Example 8; details: modified versus reference polymerase, ωdN4P 14 μM
Procedure: In this example, the tpol values of an exemplary modified polymerase comprising the amino acid of SEQ ID NO: 8 and was measured and compared to the tpol value of an exemplary reference polymerase comprising the amino acid sequence of SEQ ID NO: 20. These kinetic parameters were evaluated using a stopped-flow assay wherein a mixture comprising an extendible dye-labeled primer:template duplex and test polymerase was mixed with a solution comprising terminally-labeled nucleotide tetraphosphates or terminally-labeled nucleotide hexaphosphates. These terminally-labeled nucleotides comprise terminal-phosphate-labeled nucleotides having an alkyl linker with a functional amine group attached to the dye. The fluorescence of the resulting mixture was monitored over time. Unless noted otherwise, all concentrations refer to the initial concentrations prior to mixing. […]
Each primer-template duplex (200 nM) was preincubated with test polymerase (660 nM) and to form an E.DNA binary complex. This binary complex was mixed with the cognate omega-labeled nucleoside tetraphosphate (ωdN4P; 14 μM) in a stopped-flow experiment, and the fluorescence at both 546 nm and 647 nm was monitored following mixing. The averaged stopped-flow fluorescence traces were fitted with the double exponential function of Equation (2) to extrapolate the tpol value of the test polymerase: […]

[3] = test system: 5′-[32P]-labeled templates or 5′-TAMRA-labeled templates; assay: Photostability assay (primer extension after 405 nm excitation radiation); details: after 30 seconds of exposure at 50 W/cm2, 405 nm
Text: The photostability of an exemplary reference polymerase comprising a His-tagged version of Phi-29 polymerase (“HP1; see, e.g., U.S. Provisional Application No. 61/184,770, filed Jun. 5, 2009 for disclosure of HP1 sequence and purification) comprising the amino acid sequence of SEQ ID NO: 20, and an exemplary modified polymerase comprising the amino acid sequence of SEQ ID NO: 19 and further comprising the amino acid substitution D175A were characterized by measuring the amount of primer extension observed in each sample prior to and following exposure to excitation radiation at 405 nm Reactions (100 μL) containing 50 mM Tris, pH 7.5, 50 mM NaCl, 1 mM DTT, 2 mM MnCl2, 0.3% BSA, 10-200 nM polymerase and 100 nM nanoparticles (or premade polymerase-nanoparticle conjugates; see, e.g., U.S. Provisional Application No. 61/184,770 filed Jun. 5, 2009), and 100 nM 5′-[^32P]-labeled templates or 5′-TAMRA-labeled templates were prepared with and without the Oxygen Scavenging System (OSS). […] Polymerase activity was quantified as the % of extended primer (as compared to the total starting amount of primer), as measured by densitometric analysis. Phototoxicity is quantified by measuring the percent decrease in polymerase activity that occurs when samples are illuminated compared to non-illuminated samples. The photostability is quantified by subtracting the observed photosensitivity from 100.

Substance	estimated t−1 values [1]	estimated tpol values [2]	% activity retained [3]
SEQ ID NO: 1: exemplary polymerase of the bacteriophage Phi-29 [reference compound]	comparable	comparable	
HP1: Phi-29 polymerase lacking exonuclease activity with N-terminal His-tag, linker, D12A and D66A mutations [reference compound]			less than 40%

From patent US10093973B2, “Polymerase compositions and methods” (LIFE TECHNOLOGIES CORPORATION, priority 2009, dated 2018)
